Test results as given in ChEMBL document CHEMBL1124960, “Histamine H3 ligands: just pharmacological tools or potential therapeutic agents?” (J Med Chem, 1990).

How the values were obtained:
[1] = molecular target: T1, Histamine H3 receptor (Rattus norvegicus, UniProt Q9QYN8); experiment: Evaluated for antagonist activity against Histamine H3 receptor and represented as KB.; type: functional
[2] = species on record: Rattus norvegicus; experiment: Evaluated for [3H]HA release at a frequency 10 Hz for 2 min at a concentration 10 E -6M; type: functional
[3] = species on record: Rattus norvegicus; experiment: Evaluated for [3H]HA release at a frequency 20 Hz for 2 min at a concentration 10 E -6M; type: functional
[4] = molecular target: Histamine H2 receptor (Cavia porcellus) (UniProt P47747); experiment: Evaluated for activity against histamine H2 receptor in guinea pig gastric secretion and represented as alpha; type: tissue-based; conditions: Stomach
Histamine H2 receptor (Cavia porcellus), sequence (P47747 whole entry): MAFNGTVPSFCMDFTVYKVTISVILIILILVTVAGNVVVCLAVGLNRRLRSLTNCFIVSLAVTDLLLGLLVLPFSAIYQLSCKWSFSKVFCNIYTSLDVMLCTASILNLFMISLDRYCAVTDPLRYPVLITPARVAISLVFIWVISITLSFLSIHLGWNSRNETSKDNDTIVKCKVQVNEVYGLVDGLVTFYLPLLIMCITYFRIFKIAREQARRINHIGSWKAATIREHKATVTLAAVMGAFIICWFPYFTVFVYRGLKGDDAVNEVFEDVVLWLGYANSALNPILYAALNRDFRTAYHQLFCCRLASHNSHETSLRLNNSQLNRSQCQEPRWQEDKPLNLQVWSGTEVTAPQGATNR

[5] = species on record: Rattus norvegicus; experiment: Evaluated for [3H]-HA release at a frequency 33.3 Hz for 2 min at a concentration 10 E -6M.; type: functional
[6] = species on record: Rattus norvegicus; experiment: Evaluated for [3H]-HA release at a frequency 10 Hz for 2 min at a concentration 10 E -5M; type: functional
[7] = species on record: Rattus norvegicus; experiment: Evaluated for [3H]HA release at a frequency 20 Hz for 2 min at a concentration 10 E -7M; type: functional
[8] = molecular target: Histamine H1 receptor (Cavia porcellus) (UniProt P31389); experiment: Evaluated for their activity at histamine H1 receptor in guinea pig ileum.; type: tissue-based
Histamine H1 receptor (Cavia porcellus), sequence (P31389 whole entry): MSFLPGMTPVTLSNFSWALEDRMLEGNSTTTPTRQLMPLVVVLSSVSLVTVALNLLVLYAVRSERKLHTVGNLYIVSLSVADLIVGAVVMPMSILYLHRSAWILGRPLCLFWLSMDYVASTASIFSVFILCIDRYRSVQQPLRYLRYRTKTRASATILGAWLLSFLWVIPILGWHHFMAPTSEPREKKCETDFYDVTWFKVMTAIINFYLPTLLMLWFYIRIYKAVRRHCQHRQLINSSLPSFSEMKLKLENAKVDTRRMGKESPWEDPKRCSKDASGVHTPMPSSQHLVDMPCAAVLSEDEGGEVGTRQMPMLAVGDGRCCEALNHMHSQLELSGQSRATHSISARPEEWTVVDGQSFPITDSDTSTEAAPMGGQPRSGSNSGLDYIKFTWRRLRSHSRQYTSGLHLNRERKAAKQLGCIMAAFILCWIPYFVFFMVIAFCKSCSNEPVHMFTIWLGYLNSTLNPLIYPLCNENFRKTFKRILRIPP

[9] = species on record: Rattus norvegicus; experiment: Evaluated for [3H]HA release at a frequency 20 Hz for 2 min at a concentration 10 E -5M; type: functional
[10] = species on record: Rattus norvegicus; experiment: Evaluated for [3H]HA release at a frequency 10 Hz for 2 min at a concentration 10 E -7M; type: functional
[11] = molecular target: Histamine H2 receptor (Cavia porcellus) (UniProt P47747); experiment: Evaluated for activity against histamine H2 receptor in guinea pig gastric secretion and represented as intrinsic activity; conditions: Stomach
[12] = species on record: Rattus norvegicus; experiment: Evaluated for [3H]HA release at a frequency 33.3 Hz for 2 min at a concentration 10 E -5M.; type: functional
[13] = species on record: Rattus norvegicus; experiment: Evaluated for [3H]HA release at a frequency 2 Hz for 2.5 min at a concentration 10 E -6M; type: functional
[14] = molecular target: Histamine H3 receptor (Rattus norvegicus) (UniProt Q9QYN8); experiment: Evaluated for antagonist activity against histamine H3 receptor and represented as KB.; type: functional
Target sequence in this assay (Q9QYN8 whole entry): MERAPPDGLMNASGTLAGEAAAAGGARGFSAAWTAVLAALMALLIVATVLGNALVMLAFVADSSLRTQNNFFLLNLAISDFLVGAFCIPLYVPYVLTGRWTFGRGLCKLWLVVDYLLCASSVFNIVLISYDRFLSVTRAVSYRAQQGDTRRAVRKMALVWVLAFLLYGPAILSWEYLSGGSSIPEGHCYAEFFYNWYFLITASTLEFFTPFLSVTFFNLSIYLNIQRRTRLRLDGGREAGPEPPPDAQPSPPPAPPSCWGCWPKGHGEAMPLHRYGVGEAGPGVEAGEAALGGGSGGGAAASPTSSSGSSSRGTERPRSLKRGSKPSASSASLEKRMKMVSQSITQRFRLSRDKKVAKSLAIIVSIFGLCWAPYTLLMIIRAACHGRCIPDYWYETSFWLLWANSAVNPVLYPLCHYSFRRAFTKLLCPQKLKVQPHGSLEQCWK

[15] = molecular target: Histamine H2 receptor (Cavia porcellus) (UniProt P47747); experiment: Evaluated for activity against histamine H2 receptor in guinea pig atrium and represented as intrinsic activity; conditions: Cardiac atrium
[16] = molecular target: Histamine H2 receptor (Cavia porcellus) (UniProt P47747); experiment: Evaluated for activity against histamine H2 receptor in guinea pig atrium and represented as alpha; type: tissue-based; conditions: Cardiac atrium
[17] = molecular target: Histamine H2 receptor (Cavia porcellus) (UniProt P47747); experiment: Evaluated for activity against histamine H2 receptor in guinea pig gastric secretion and represented as pD2; type: tissue-based; conditions: Stomach
[18] = molecular target: Histamine H3 receptor (Rattus norvegicus) (UniProt Q9QYN8); experiment: Evaluated for activity against H3 receptor and represented as %recovery histamine release at a concentration 5 x 10 E -6M
Target sequence in this assay (Q9QYN8 whole entry, looked up): as the sequence (Q9QYN8 whole entry) above

[19] = molecular target: Histamine H1 receptor (Cavia porcellus) (UniProt P31389); conditions: Ileum
[20] = species on record: Rattus norvegicus; experiment: Relative inhibition of [3H]histamine release from pre-loaded slices of rat cerebral cortex; type: functional
[21] = molecular target: Histamine H2 receptor (Cavia porcellus) (UniProt P47747); experiment: Evaluated for activity at Histamine H2 receptor in guinea pig ileum; type: tissue-based
[22] = molecular target: Histamine H2 receptor (Cavia porcellus) (UniProt P47747); conditions: Cardiac atrium
[23] = molecular target: Histamine H1 receptor (Cavia porcellus) (UniProt P31389); experiment: Evaluated for activity at Histamine H1 receptor in guinea pig ileum; type: tissue-based
[24] = molecular target: T1, Histamine H3 receptor; experiment: Evaluated for antagonistic activity at histamine H3 receptor in rat cerebral cortex and is represented as Ki; type: functional, tissue-based
[25] = molecular target: Histamine H2 receptor (Cavia porcellus) (UniProt P47747); experiment: Evaluated for their activity at histamine H2 receptor in guinea pig ileum.; type: tissue-based
[26] = species on record: Rattus norvegicus; experiment: Inhibition of [3H]histamine release from preloaded slices of rat cerebral cortex as pD2; type: functional
[27] = molecular target: Histamine H3 receptor (Rattus norvegicus) (UniProt Q9QYN8); experiment: Evaluated for antagonist activity against histamine H3 receptor and represented as KB; type: functional
Target sequence in this assay (Q9QYN8 whole entry): as above

[28] = molecular target: Histamine H1 receptor (Cavia porcellus) (UniProt P31389); experiment: Evaluated for antagonist activity against histamine H1 receptor and represented as KB; type: functional
[29] = molecular target: Histamine H2 receptor (Cavia porcellus) (UniProt P47747); experiment: Evaluated for agonistic (intrinsic) activity at histamine H2 receptor of guinea pig atrium and is represented as intrinsic activity; type: functional, tissue-based; conditions: Cardiac atrium
[30] = molecular target: Histamine H2 receptor (Cavia porcellus) (UniProt P47747); experiment: Evaluated for agonistic activity at histamine H2 receptor of guinea pig atrium and is represented as potency; type: functional, tissue-based; conditions: Cardiac atrium
[31] = species on record: Rattus norvegicus; experiment: Histamine level after treatment was determined in adbominal skin.; type: functional
[32] = species on record: Rattus norvegicus; experiment: Histamine level after treatment was determined in cerebral cortex; type: functional
[33] = species on record: Rattus norvegicus; experiment: Histamine level after treatment was determined in hypothalamus.; type: functional
[34] = species on record: Rattus norvegicus; experiment: Histamine level after treatment was determined in spleen; type: functional
[35] = species on record: Rattus norvegicus; experiment: Histamine level after treatment was determined in colon.; type: functional
[36] = species on record: Rattus norvegicus; experiment: Histamine level after treatment was determined for both agents (R-alpha-methylhistamine, thioperamide) in cerebral cortex; type: functional
[37] = species on record: Rattus norvegicus; experiment: Histamine level after treatment was determined for both agents (R-alpha-methylhistamine, thioperamide) in adbominal skin.; type: functional
[38] = species on record: Rattus norvegicus; experiment: Histamine level after treatment was determined for both agents (R-alpha-methylhistamine, thioperamide) in lung.; type: functional
[39] = species on record: Rattus norvegicus; experiment: Histamine level after treatment was determined for both agents (R-alpha-methylhistamine, thioperamide) in; type: functional
[40] = species on record: Rattus norvegicus; experiment: Histamine level after treatment was determined for both agents (R-alpha-methylhistamine, thioperamide) in spleen; type: functional
[41] = species on record: Rattus norvegicus; experiment: Histamine level after treatment was determined for both agents (R-alpha-methylhistamine, thioperamide) in hypothalamus.; type: functional
[42] = molecular target: Histamine H2 receptor (Cavia porcellus) (UniProt P47747); experiment: Evaluated for antagonist activity against histamine H2 receptor and represented as KB.; type: functional
[43] = molecular target: Histamine H2 receptor (Cavia porcellus, UniProt P47747); experiment: Evaluated for activity against Histamine H2 receptor in guinea pig atrium and represented pA2; type: tissue-based, Cardiac atrium; conditions: read-out: pA2 (converted)
Histamine H2 receptor, sequence (P47747 whole entry): as the sequence (P47747 whole entry) above

[44] = molecular target: Histamine H3 receptor (Rattus norvegicus) (UniProt Q9QYN8); experiment: Evaluated for activity against H3 receptor and represented as %recovery histamine release at a concentration 5 x 10 E -6M.
Target sequence in this assay (Q9QYN8 whole entry, looked up): as the sequence (Q9QYN8 whole entry) above

[45] = molecular target: Histamine H2 receptor (Cavia porcellus) (UniProt P47747); experiment: Evaluated for activity against Histamine H2 receptor in guinea pig atrium and represented as alpha; type: tissue-based; conditions: Cardiac atrium
[46] = species on record: Rattus norvegicus; experiment: Evaluated for inhibition of [3H]histamine release from preloaded slices and is represented as pD2.; type: functional

T1 sequence (Q9QYN8 whole entry): as above

## O=C(CCCc1ccccc1)NCCc1cnc[nH]1
[1]
  Ki: 79.4 nM

## Cc1[nH]cnc1CSCCNC(=N)NCCCc1c[nH]cn1 [IMPROMIDINE]
[2]
  HA release: 25.9
[3]
  HA release: 35.5
[4]
  H2 activity: 1
[5]
  HA release: 39.5
[6]
  HA release: 25.5
[7]
  HA release: 31.2
[8]
  Activity: < 0.001
[9]
  HA release: 35.1
[10]
  HA release: 25.3
[11]
  intrinsic activity: 1
[12]
  HA release: 38.4
[13]
  HA release: 14.3

## CN(C)CC[C@H](c1ccc(Cl)cc1)c1ccccn1
[14]
  KB: > 0.058 µM

## CC(C)Cc1ccc(CSCC/N=C(\N)NCCCc2c[nH]cn2)o1
[4]
  pD2: 8.5
[15]
  intrinsic activity: 0.9
[16]
  Activity: 0.9
[17]
  pD2: 7.8
[18]
  Release: 100%

## NCCc1c[nH]cn1 [HISTAMINE]
[19]
  Potency: 100
[20]
  Ratio_EC50: 100
[21]
  Activity: 100
[22]
  pD2: 5.95
[23]
  Activity: 100

## Cc1nc[nH]c1CSCCNC(N)=N[C@@H](C)Cc1cnc[nH]1
[24]
  Ki: 40 nM

## CN(C)CCc1cnc[nH]1
[25]
  Activity: 51
[20]
  Ratio_EC50: 170
[26]
  pD2: 7.3
[8]
  Activity: 44

## CN/C(=N\CCSCc1nc[nH]c1C)NC#N
[14]
  KB: 33 µM

## COc1ccc(CN(CCN(C)C)c2ccccn2)cc1
[27]
  KB: > 58 nM
[28]
  KB: 440 pM

## Cc1nc[nH]c1CSCCN/C(N)=N/C(C)Cc1c[nH]cn1 (centres undefined)
[29]
  Activity: 0.8
[30]
  pD2: 6.48

## O=C(CCc1ccccc1)NCCc1cnc[nH]1
[1]
  Ki: 631 nM

## Cc1ncc(CCN)[nH]1 [2-METHYLHISTAMINE]
[20]
  Ratio_EC50: <0.008
[21]
  Activity: 4.4
[23]
  Activity: 16.5

## S=C(NC1CCCCC1)N1CCC(c2cnc[nH]2)CC1 [THIOPERAMIDE]
[31]
  Histamine level: 75
[32]
  Histamine level: 234
[33]
  Histamine level: 245
[34]
  Histamine level: 123
[35]
  Histamine level: 80

## C[C@@H](N)Cc1c[nH]cn1.S=C(NC1CCCCC1)N1CCC(c2c[nH]cn2)CC1
[36]
  Histamine level: 196
[37]
  Histamine level: 73
[38]
  Histamine level: 143
[39]
  Histamine level: 75
[40]
  Histamine level: 96
[41]
  Histamine level: 205

## CNC(=S)NCCSCc1[nH]cnc1C
[42]
  KB: 920 nM
[14]
  KB: 2.5 µM

## CSCC/N=C(\NC#N)NCCCc1c[nH]cn1 [VUF-8406]
[43]
  Kb: 15.8 nM
[44]
  Release: 100%
[45]
  Activity: 0

## CNCCc1cnc[nH]1
[20]
  Ratio_EC50: 270
[21]
  Activity: 74
[46]
  pD2: 8.7
[23]
  Activity: 72

## O=C(CCCc1ccccn1)NCCc1c[nH]cn1
[1]
  Ki: 1000 nM
